The compounds below were run on MNV (assay: MNV CPE reduction assay (MTS) in RAW 264.7 cells). Conditions: Norovirus, RAW264.7, in Mus musculus, Table 2, RAW 264.7, range 0.6–100 µM, at least three independent experiments.
Type: cell-based, mouse norovirus (MNV-1.CW1)
Outline: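 MNV-1.CW1-infected RAW 264.7 cells treated at eight concentrations (0.6–100 µM), 2′-C-methylcytidine as positive control. Viability read by MTS/PMS at OD 498 nm after 2 h; %CPE reduction normalised to uninfected and infected untreated cells, EC50 = concentration protecting 50% of cells from virus-induced CPE.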

Row | SMILES | EC50 [µM]
1 | O=C(NC(=S)Nc1ccc(N2CCN(C(=O)c3cccs3)CC2)cc1)c1sc2ccccc2c1Cl [Compound 48, 3-Chloro-N-((4-(4-(thiophene-2-carbonyl)piperazin-1-yl)phenyl)carbamothioyl)benzo[b]thiophene-2-carboxamide, reference compound] | 58.2 ± 20.7
2 | Cc1ccc(C(=O)NC(=S)Nc2ccc(N3CCN(C(=O)c4cccs4)CC3)cc2)cc1 [Compound 52, 4-Methyl-N-((4-(4-(thiophene-2-carbonyl)piperazin-1-yl)phenyl)carbamothioyl)benzamide] | 45.1 ± 10.8
3 | O=C(NC(=S)Nc1ccc(N2CCN(C(=O)c3nccs3)CC2)cc1)c1sc2ccccc2c1Cl [Compound 56, 3-Chloro-N-((4-(4-(thiazole-2-carbonyl)piperazin-1-yl)phenyl)carbamothioyl)benzo[b]thiophene-2-carboxamide] | 66.1 ± 12.3
